The subject of data set [1] is A375 human melanoma cells. Description: MTT viability analysis, TPP chain length and treatment time, A375 cells. Conditions: for cytotoxicity at 0.5 µM: Homo sapiens, read-out: decrease in A375 cell viability.
Protocol: (§1) A375 human melanoma (catalog no. CRL1619™) cells were purchased from ATCC®. All cells were cultured in 150 cm^2 culture flasks at 37° C. in a humidified 5% CO2 incubator and detached with 0.25% trypsin-EDTA (GIBCO®, catalog no. 25200). A375 cells were cultured in high glucose DMEM medium (GIBCO®, catalog no. 11965) supplemented with 1% PenStrep (GIBCO®, catalog no. 15140) and 10% FBS (GIBCO®, catalog no. 26140). MeWo cells were cultured in 1:1 DMEM:F12 (VENDOR INFO) medium supplemented with 1% PenStrep and 10% FBS. Melanocytes were cultured in Ham's F10 medium (GIBCO®, catalog no 11550) supplemented with 7% horse serum (Hyclone®, catalog no. SH30074.03) and 50 ng/mL 12-myristate 13-acetate (TPA) (Sigma®, catalog no. P-8139). Experiments were performed with cells at or below passage twenty.
(§2) MTT viability analysis of melanoma cells versus non-malignant melanocyte cells looking at the effect of variation in TPP molecular chain length and treatment time. A375 human melanoma cells in (A), MeWo human melanoma cells in (B), and non-malignant melanocyte cells in (C) were treated with TPP derivatives at a 0.5 μM concentration for 24 h, 48 h, and 72 h.
In data set [2] the test system is melanoma tumor. Description: Treatment of melanoma tumor bearing animals. Format: in vivo.
The test system of data set [3] is MeWo human melanoma cells. As to the kind of experiment: MTT viability analysis, TPP chain length and treatment time, MeWo cells. As to conditions: for cytotoxicity at 0.5 µM: Homo sapiens, MeWo, read-out: decrease in MeWo cell viability.
Protocol: as §1, §2
In data set [4] the test system is non-malignant melanocyte cells. As to the kind of experiment: MTT viability analysis, TPP chain length and treatment time, melanocytes. As to conditions: 0.5 μM.
Protocol: as §1, §2

Like-named read-outs stand apart in the source and are kept apart here.

`CCCCCCCCCC[P+](c1ccccc1)(c1ccccc1)c1ccccc1` [decyl-TPP, decyltriphenylphosphonium]: in data set [1] (0.5 μM, 24 h), the “decrease in A375 cell viability” value is given as “no significant decrease”. Further, the cytotoxicity at 0.5 µM in data set [1] (A-375, 48 h) is > 30%; in data set [1] (A-375, 72 h), > 30%; in data set [3] (48 h), > 30%; in data set [3] (72 h), > 30%. Further, the tolerability entry in data set [2] is listed as “well-tolerated”. Also, the “decrease in MeWo cell viability” value in data set [3] (0.5 μM, 24 h) is “no significant decrease”. Besides, the “decrease in non-malignant melanocyte cell viability” value in data set [4] (24 h) and in data set [4] (48 h) was “No significant decrease” in each case. In data set [4] (72 h), the “decrease in melanocyte viability” value is recorded as “not observed”.
